Reference: US9862720B2, “Inhibitors of the renal outer medullary potassium channel” (Merck Sharp & Dohme Corp., priority 2014, dated 2018)

Assays:
ROMK (Kir1.1) channel = biological target: T1, ROMK (Kir1.1) channel (Homo sapiens, UniProt P48048); test: Thallium Flux Assay; assay type: cell-based
T1 sequence (P48048 1-391): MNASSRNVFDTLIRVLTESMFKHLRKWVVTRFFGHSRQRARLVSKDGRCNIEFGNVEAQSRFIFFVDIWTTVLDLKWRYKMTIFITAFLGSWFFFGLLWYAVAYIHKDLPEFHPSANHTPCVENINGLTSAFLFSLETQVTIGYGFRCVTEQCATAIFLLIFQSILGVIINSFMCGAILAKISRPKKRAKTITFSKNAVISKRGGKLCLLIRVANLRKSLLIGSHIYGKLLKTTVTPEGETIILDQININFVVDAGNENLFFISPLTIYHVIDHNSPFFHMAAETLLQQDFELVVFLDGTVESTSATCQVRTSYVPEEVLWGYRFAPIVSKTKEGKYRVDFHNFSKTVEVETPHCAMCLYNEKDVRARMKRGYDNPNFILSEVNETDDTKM
Experimental: A Thallium Flux Assay was performed on the compounds of the Examples. This assay has been described previously; see, e.g., PCT Published Application WO 2013/062900.

Kir1.1 (ROMK1) = biological target: T2, Kir1.1 (ROMK1) (Homo sapiens, UniProt P48048); test: Electrophysiology Assay (whole cell voltage clamp, IonWorks Quattro); assay type: cell-based; conditions: Chinese hamster ovary cells stably expressing Kir1.1; fractional block at voltage step to 0 mV; 6 min compound incubation
T2 construct: expressed in transfected cells
T2 sequence (P48048 1-391): T1 sequence (P48048 1-391)
Experimental: Blocking of Kir1.1 (ROMK1) currents was examined by whole cell voltage clamp (Hamill et. al. Pfluegers Archives 391:85-100 (1981) using the IonWorks Quattro automated electrophysiology platform (Molecular Devices, Sunnyvale, Calif.). Chinese hamster ovary cells stably expressing Kir1.1 channels were maintained in T-75 flasks in cell culture media in a humidified 10% CO2 incubator at 37° C. Prior to an experiment, Kir1.1 expression was induced by overnight incubation with 1 mM sodium butyrate. On the day of the experiment, cells were dissociated with 2.5 mL of Versene (Invitrogen 15040-066), a non-enzymatic cell dissociation reagent, for approximately 6 min at 37° C. and suspended in 10 mL of bath solution containing (in mM): 150 NaCl, 10 KCl, 2.7 CaCl2, 0.5 MgCl2, and 5 HEPES, at pH 7.4. After centrifugation, the cell pellet was resuspended in approximately 4.0 mL of bath solution and placed in the IonWorks instrument. The intracellular solution consisted of (in mM): 80 K gluconate, 40 KCl, 20 KF, 3.2 MgCl2, 3 EGTA, and 5 Hepes, at pH 7.4. Electrical access to the cytoplasm was achieved by perforation in 0.13 mg/mL amphotericin B for 4 min. Amphotericin B (Sigma A-4888) was prepared as a 40 mg/mL solution in DMSO.
Voltage protocols and current recordings were performed using the IonWorks HT software/hardware system. Currents were sampled at 1 kHz. There was no correction for liquid junction potentials. The test pulse, consisting of a 100 ms (millisecond) step to 0 mV (millivolts) from a holding potential of −70 mV, followed by a 100 ms voltage ramp from −70 mV to +70 mV, was applied before and after a 6 min compound incubation period. Test compounds were prepared by diluting DMSO stock solutions into the bath solution at 3× the final concentration and placed in the instrument in 96-well polypropylene plates. Current amplitudes were measured using the IonWorks software. To assess compound potency, the fractional block during the voltage step to 0 mV was calculated in Microsoft Excel (Microsoft, Redmond, Calif.), and dose-response curves were fitted with Igor Pro 4.0 (WaveMetrics, Lake Oswego, Oreg.). Although not required, a control compound is typically included to support that the assay is giving consistent results compared to previous measurements.

With `CC1=C(N2NCC3(CCN(C[C@H](O)c4ccc(-n5cnnn5)nc4)CC3)C2=O)COC1=O` [Example 2A, (R)-8-(2-(6-(1H-tetrazol-1-yl)pyridin-3-yl)-2-hydroxyethyl)-2-(4-methyl-5-oxo-2,5-dihydrofuran-3-yl)-2,3,8-triazaspiro[4.5]decan-1-one] the IC50 (ROMK (Kir1.1) channel) was 0.0365 µM and the IC50 (Kir1.1 (ROMK1)) was 0.053 µM.
`CC1=C(N2NCC3(CCN(C[C@H](O)c4ccc5c(c4C)COC5=O)CC3)C2=O)COC1=O` [Example 1, (R)-8-(2-hydroxy-2-(4-methyl-1-oxo-1,3-dihydroisobenzofuran-5-yl)ethyl)-2-(4-methyl-5-oxo-2,5-dihydrofuran-3-yl)-2,3,8-triazaspiro[4.5]decan-1-one] was tested, and the IC50 (ROMK (Kir1.1) channel) was 0.0684 µM and the IC50 (Kir1.1 (ROMK1)) was 0.033 µM.
With `CC1=C(N2N=CC3(CCN(C[C@H](O)c4ccc(-n5cnnn5)nc4)CC3)C2=O)COC1=O` [Example 3A, (R)-8-(2-(6-(1H-tetrazol-1-yl)pyridin-3-yl)-2-hydroxyethyl)-2-(4-methyl-5-oxo-2,5-dihydrofuran-3-yl)-2,3,8-triazaspiro[4.5]dec-3-en-1-one] the IC50 (ROMK (Kir1.1) channel) was 0.0549 µM and the IC50 (Kir1.1 (ROMK1)) was 0.017 µM.
`CC1=C(N2N=CC3(CCN(C[C@@H](O)c4ccc(-n5cnnn5)nc4)CC3)C2=O)COC1=O` [Example 3B, (S)-8-(2-(6-(1H-tetrazol-1-yl)pyridin-3-yl)-2-hydroxyethyl)-2-(4-methyl-5-oxo-2,5-dihydrofuran-3-yl)-2,3,8-triazaspiro[4.5]dec-3-en-1-one] was tested, and the IC50 (ROMK (Kir1.1) channel) was 0.0571 µM.
`CC1=C(N2N=CC3(CCN(CC(O)c4ccc(-n5cnnn5)nn4)CC3)C2=O)COC1=O` (single isomer, unassigned) [Example 4A, 8-(2-(6-(1H-tetrazol-1-yl)pyridazin-3-yl)-2-hydroxyethyl)-2-(4-methyl-5-oxo-2,5-dihydrofuran-3-yl)-2,3,8-triazaspiro[4.5]dec-3-en-1-one] was tested, and the IC50 (ROMK (Kir1.1) channel) was 0.267 µM.
With `CC1=C(N2NCC3(CCN(C[C@@H](O)c4ccc(-n5cnnn5)nc4)CC3)C2=O)COC1=O` [Example 2B, (S)-8-(2-(6-(1H-tetrazol-1-yl)pyridin-3-yl)-2-hydroxyethyl)-2-(4-methyl-5-oxo-2,5-dihydrofuran-3-yl)-2,3,8-triazaspiro[4.5]decan-1-one] the IC50 (ROMK (Kir1.1) channel) was 0.0578 µM and the IC50 (Kir1.1 (ROMK1)) was 0.033 µM.
`CC1=C(N2N=CC3(CCN(CCc4ccc(-n5cnnn5)nn4)CC3)C2=O)COC1=O` [Example 5, 8-(2-(6-(1H-tetrazol-1-yl)pyridazin-3-yl)ethyl)-2-(4-methyl-5-oxo-2,5-dihydrofuran-3-yl)-2,3,8-triazaspiro[4.5]dec-3-en-1-one] gave an IC50 (ROMK (Kir1.1) channel) of 0.0458 µM.
